# In ChEMBL document CHEMBL5512640, “Discovery of novel itaconimide-based derivatives as potent HDAC inhibitors for the efficient treatment of prostate cancer” (Eur J Med Chem, 2024):
# What was measured:
# [1] = system: DU-145; assay: Induction of apoptosis in human DU-145 cells assessed as apoptotic rate at 1.6 uM measured after 72 hrs by annexin V-FITC and PI staining based flow cytometry analysis relative to control; assay type: functional
# [2] = system: NCI-H446; assay: Antiproliferative activity against human NCI-H446 cells incubated for 96 hrs by MTT assay; assay type: functional, cell-based; details: NCI-H446, 96 h
# [3] = target: Protein deacetylase HDAC6 (Homo sapiens, UniProt Q9UBN7); assay: Inhibition of human HDAC6 incubated for 10 mins followed by fluorogenic substrate addition by fluorescence based analysis
# [4] = target: Histone deacetylase 5 (Homo sapiens, UniProt Q9UQL6); assay: Inhibition of human HDAC5 incubated for 10 mins followed by fluorogenic substrate addition by fluorescence based analysis
# [5] = system: DU-145; assay: Upregulation of histone H3 level in human DU-145 cells incubated for 24 hrs by Western blot analysis; assay type: functional, cell-based; details: dose 0.8-3.2 µM
# [6] = Acute toxicity in Sprague-Dawley rat assessed as pathological lesions at 500 to 4500 mg/kg, po measured after 15 days by H and E staining based analysis; assay type: organism-based; details: in vivo, 360 h, dose 500-4500 mg/kg, time 15 day
# [7] = system: HT-29; assay: Antiproliferative activity against human HT-29 cells incubated for 96 hrs by MTT assay; assay type: functional, cell-based; details: HT-29, 96 h
# [8] = target: Histone deacetylase 11 (Homo sapiens, UniProt Q96DB2); assay: Inhibition of human HDAC11 incubated for 10 mins followed by fluorogenic substrate addition by fluorescence based analysis
# [9] = AUC (0 to infinity) in Sprague-Dawley rat at 2 mg/kg, iv measured upto 24 hrs by LC-MS/MS analysis; assay type: ADME, organism-based; details: in vivo
# [10] = Acute toxicity in Sprague-Dawley rat assessed as effect on liver at 500 to 4500 mg/kg, po measured after 15 days; assay type: organism-based; details: in vivo, 360 h, dose 500-4500 mg/kg, time 15 day
# [11] = system: LNCaP; assay: Antiproliferative activity against human LNCaP cells incubated for 96 hrs by MTT assay; assay type: functional, cell-based
# [12] = system: DU-145; assay: Inhibition of cell migration in human DU-145 cells assessed as suppression of wound closure incubated for 12 hrs by wound healing assay; assay type: functional, cell-based; details: dose 0.2-1.6 µM
# [13] = system: DU-145; assay: Induction of cell cycle arrest in human DU-145 cells assessed as increase in accumulation of cells at G2/M phase incubated for 24 hrs by PI staining based flow cytometry analysis; assay type: functional; details: dose 0.4-3.2 µM
# [14] = Volume of distribution in Sprague-Dawley rat at 2 mg/kg, iv measured upto 24 hrs by LC-MS/MS analysis; assay type: ADME, organism-based; details: in vivo
# Protein deacetylase HDAC6, sequence (Q9UBN7 whole entry): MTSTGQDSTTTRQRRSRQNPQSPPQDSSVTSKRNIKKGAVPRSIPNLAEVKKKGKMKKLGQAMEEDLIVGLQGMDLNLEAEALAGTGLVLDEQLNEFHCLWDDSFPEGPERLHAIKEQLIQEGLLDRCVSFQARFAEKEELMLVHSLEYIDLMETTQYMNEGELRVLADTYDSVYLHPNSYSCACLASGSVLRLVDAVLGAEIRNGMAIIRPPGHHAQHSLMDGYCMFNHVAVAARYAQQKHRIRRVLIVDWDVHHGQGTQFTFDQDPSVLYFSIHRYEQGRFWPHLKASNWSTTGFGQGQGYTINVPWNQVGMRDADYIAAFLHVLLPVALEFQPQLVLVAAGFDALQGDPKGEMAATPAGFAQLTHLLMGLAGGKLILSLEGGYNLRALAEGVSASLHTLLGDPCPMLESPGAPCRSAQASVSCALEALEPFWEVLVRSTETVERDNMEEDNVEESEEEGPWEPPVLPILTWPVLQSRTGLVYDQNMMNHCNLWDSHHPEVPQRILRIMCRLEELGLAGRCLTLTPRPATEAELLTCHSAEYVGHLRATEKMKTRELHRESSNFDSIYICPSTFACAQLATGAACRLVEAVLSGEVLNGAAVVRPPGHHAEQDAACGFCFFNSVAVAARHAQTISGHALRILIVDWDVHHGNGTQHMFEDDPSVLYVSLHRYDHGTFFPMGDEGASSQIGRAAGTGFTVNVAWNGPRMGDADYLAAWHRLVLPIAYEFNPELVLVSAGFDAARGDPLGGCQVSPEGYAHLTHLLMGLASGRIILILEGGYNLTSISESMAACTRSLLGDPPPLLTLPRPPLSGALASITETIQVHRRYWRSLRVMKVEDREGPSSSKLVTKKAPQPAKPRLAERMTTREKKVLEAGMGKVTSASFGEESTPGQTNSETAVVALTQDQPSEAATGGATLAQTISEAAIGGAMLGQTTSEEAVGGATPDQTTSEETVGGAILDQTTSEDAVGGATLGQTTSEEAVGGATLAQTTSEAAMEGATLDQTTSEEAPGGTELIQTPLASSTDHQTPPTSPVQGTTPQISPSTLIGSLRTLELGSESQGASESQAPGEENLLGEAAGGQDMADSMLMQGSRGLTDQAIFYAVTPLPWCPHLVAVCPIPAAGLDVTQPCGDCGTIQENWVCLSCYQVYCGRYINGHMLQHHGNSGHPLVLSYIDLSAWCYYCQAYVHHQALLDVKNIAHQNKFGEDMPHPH
# Histone deacetylase 5, sequence (Q9UQL6 whole entry): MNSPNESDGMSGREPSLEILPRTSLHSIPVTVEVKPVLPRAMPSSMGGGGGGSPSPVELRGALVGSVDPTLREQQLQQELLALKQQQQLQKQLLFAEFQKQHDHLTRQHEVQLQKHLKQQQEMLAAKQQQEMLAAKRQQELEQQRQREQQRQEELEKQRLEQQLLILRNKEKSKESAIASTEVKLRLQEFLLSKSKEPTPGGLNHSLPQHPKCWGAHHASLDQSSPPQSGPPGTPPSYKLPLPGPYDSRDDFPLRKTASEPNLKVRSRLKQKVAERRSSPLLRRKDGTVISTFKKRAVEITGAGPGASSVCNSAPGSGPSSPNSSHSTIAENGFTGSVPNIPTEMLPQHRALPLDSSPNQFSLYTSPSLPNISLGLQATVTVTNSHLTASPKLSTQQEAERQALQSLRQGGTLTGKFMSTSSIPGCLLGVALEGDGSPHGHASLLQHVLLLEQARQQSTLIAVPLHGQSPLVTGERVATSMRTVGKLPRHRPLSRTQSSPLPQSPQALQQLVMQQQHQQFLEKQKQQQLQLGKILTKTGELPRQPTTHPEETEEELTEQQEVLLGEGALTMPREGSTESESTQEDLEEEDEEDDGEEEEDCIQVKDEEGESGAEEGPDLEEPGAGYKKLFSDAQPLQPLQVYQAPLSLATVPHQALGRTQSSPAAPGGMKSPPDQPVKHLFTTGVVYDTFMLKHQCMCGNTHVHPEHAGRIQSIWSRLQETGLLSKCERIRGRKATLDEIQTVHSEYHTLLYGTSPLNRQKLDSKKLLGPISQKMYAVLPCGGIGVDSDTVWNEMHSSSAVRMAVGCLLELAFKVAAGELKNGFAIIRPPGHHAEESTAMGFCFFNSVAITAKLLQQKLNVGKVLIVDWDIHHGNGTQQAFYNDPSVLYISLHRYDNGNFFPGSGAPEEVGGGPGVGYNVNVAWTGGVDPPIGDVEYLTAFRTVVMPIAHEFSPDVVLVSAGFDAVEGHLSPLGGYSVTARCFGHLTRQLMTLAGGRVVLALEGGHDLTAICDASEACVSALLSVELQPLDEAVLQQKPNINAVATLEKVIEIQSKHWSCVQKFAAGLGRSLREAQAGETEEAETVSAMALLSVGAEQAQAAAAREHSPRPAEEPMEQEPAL
# Histone deacetylase 11, sequence (Q96DB2 whole entry): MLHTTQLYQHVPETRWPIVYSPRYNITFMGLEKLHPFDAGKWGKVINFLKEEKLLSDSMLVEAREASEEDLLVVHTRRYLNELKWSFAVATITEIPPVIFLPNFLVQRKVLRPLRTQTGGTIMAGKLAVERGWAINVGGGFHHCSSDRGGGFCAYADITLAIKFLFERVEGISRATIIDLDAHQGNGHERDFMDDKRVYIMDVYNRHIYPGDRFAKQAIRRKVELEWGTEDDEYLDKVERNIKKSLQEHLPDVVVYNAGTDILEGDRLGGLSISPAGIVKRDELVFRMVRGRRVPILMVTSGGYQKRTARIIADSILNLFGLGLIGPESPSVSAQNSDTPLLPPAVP
compound,measurement,setting,value
COc1ccccc1/C=C1\CC(=O)N(CCCCCCC(=O)NO)C1=O,Activity,[1],59.87%
same,IC50,[2],650 nM
same,IC50,[3],3 nM
same,IC50,[4],> 5 µM
same,Activity,[5],Dose-Dependent Effect
same,Activity,[6],Non-Toxic
same,IC50,[7],1050 nM
same,IC50,[8],> 5 µM
same,AUC(0-inf),[9],1630 ng·h/mL
same,Activity,[10],Non-Toxic
same,IC50,[11],630 nM
same,inhibition,[12],Dose-Dependent Effect
same,Activity,[13],Dose-Dependent Effect
same,Vd,[14],4.63 L/kg
